Laboratory results from patent publication EP0242417B1, “Morphinane-skeletoned hydrazone derivatives, process for preparing them, pharmaceutical composition and use” (ALKALOIDA VEGYéSZETI GYáR, priority 1986, dated 1987).

What was measured:
[1] = Sensitivity to light of the isolated product
opiate receptors = assay: Competition for tritiated Naloxon specific binding in rat brain membrane preparates; conditions: tritiated Naloxon bond (1 nanomole) taken as 100 %
Method: The effect of the 10⁻⁷ and 10⁻⁵ M concentration of the compounds was examined to tritiated Naloxon bond in rat brain membrane preparates. […]
If the inhibition is high, i.e. the value of the specific bond of the labelled Naloxon is low, the compounds bind to the opiate receptors with high affinity.
A comparative data the tritiated Naloxon bond (concentration: 1 nanomole) was taken as 100 % (without excipients).
The membrane preparate was prepared according to the following article: G.W. Pasternak, H.A. Wilson, S.H. Snyder: Molecular Pharmacol. 11 340-51 (1975).
The specific radioactivity of the labelled Naloxon was 72.4 Ci/mmole [G. Töth, M. Kramer, F. Sirokmán, A. Borsodi, A. Rónai: J. Label. Comp. Radiopharm. 19 1021 (1976)].

[2] = Hot plate test (analgetic activity); format: in vivo; conditions: sc
[3] = Tail Flick test (analgetic activity); format: in vivo; conditions: sc
[4] = compared with naloxone; cited from earlier work
[5] = compound concentration 10⁻⁵ mol
[6] = compound concentration 10⁻⁷ mol

SMILES | sensitivity to light [1] | residual tritiated specific bonds of Naloxon (opiate receptors; [5]) [%] | residual tritiated specific bonds of Naloxon (opiate receptors; [6]) [%] | Hot plate test ED₅₀ [2] [mg/kg.sc] | Tail Flick ED₅₀ [3] [mg/kg.sc.] | membrane affinity [4]
COc1ccc2c3c1O[C@H]1C(=NNc4ccccc4)C=C[C@@]4(O)[C@@H](C2)N(C)CC[C@]314 [14-OH-codeinone phenylhydrazone] | sensitive to light | – | – | – | – | –
COc1ccc2c3c1O[C@H]1C(=NNc4ccccc4)CC[C@H]4[C@@H](C2)N(C)CC[C@]314 [Dihydrocodeinone phenylhydrazone] | – | 5±1 | 75±9 | 2.4 | 2.3 | –
COc1ccc2c3c1O[C@H]1C(=NNC(N)=O)CC[C@H]4[C@@H](C2)N(C)CC[C@]314 [Dihydrocodeinone semicarbazone] | – | 9±7 | 43±4 | 0.38 | 0.35 | –
COc1ccc2c3c1O[C@H]1C(=NNC(N)=S)CC[C@H]4[C@@H](C2)N(C)CC[C@]314 [Dihydrocodeinone thiosemicarbazone] | – | – | – | 1.7 | 0.6 | –
CN1CC[C@]23c4c5ccc(O)c4O[C@H]2C(=NNc2ccc([N+](=O)[O-])cc2[N+](=O)[O-])CC[C@H]3[C@H]1C5 [Dihydromorphinone dinitrophenylhydrazone, Dihydromorphinone-2,4-dinitrophenyl hydrazone] | – | 0.5±0.7 | 17±2 | 0.27 | 0.18 | –
CN1CC[C@]23c4c5ccc(O)c4O[C@H]2C(=NNc2ccccc2)CC[C@H]3[C@H]1C5 [Dihydromorphinone phenylhydrazone] | – | 10±14 | 4±5 | – | – | –
CN1CC[C@]23c4c5ccc(O)c4O[C@H]2C(=NNC(N)=O)CC[C@H]3[C@H]1C5 [Dihydromorphinone semicarbazone] | – | 4±6 | 69±13 | 0.085 | 0.13 | –
CN1CC[C@]23c4c5ccc(O)c4O[C@H]2C(=NNC(N)=S)CC[C@H]3[C@H]1C5 [Dihydromorphinone thiosemicarbazone] | – | 19±4 | 16±5 | – | – | –
CN1CC[C@]23c4c5ccc(O)c4O[C@H]2[C@@H](O)C=C[C@H]3[C@H]1C5 [Morphine, reference compound] | – | – | – | 3.6 | 5.0 | –
COc1ccc2c3c1O[C@H]1C(=NN)C=C[C@@]4(O)[C@@H](C2)N(C)CC[C@]314 [Oxycodeinone hydrazone, 14-OH-codeinone hydrazone] | – | 13±7 | 92±25 | – | – | –
COc1ccc2c3c1O[C@H]1C(=NNc4ccccc4)CC[C@@]4(O)[C@@H](C2)N(C)CC[C@]314 [Oxycodone phenylhydrazone, 14-OH-dihydrocodeinone phenylhydrazone] | – | – | – | 0.8 | 1.2 | –
COc1ccc2c3c1O[C@H]1C(=NNC(N)=O)CC[C@@]4(O)[C@@H](C2)N(C)CC[C@]314 [Oxycodone semicarbazone, 14-OH-dihydrocodeinonesemicarbazone] | – | – | – | 0.58 | 0.45 | –
CN1CC[C@]23c4c5ccc(O)c4O[C@H]2C(=NNc2ccc([N+](=O)[O-])cc2[N+](=O)[O-])CC[C@@]3(O)[C@H]1C5 [Oxymorphone dinitrophenylhydrazone, 14-OH-dihydromorphinone-2,4-dinitrophenyl hydrazone] | – | 1±0.3 | 33±1 | 0.37 | 0.27 | –
CN1CC[C@]23c4c5ccc(O)c4O[C@H]2C(=NNC(N)=O)CC[C@@]3(O)[C@H]1C5 [Oxymorphone semicarbazone, 14-OH-dihydromarphinone semicarbazone] | – | – | – | 0.9 | 0.9 | –
CN1CC[C@]23c4c5ccc(O)c4O[C@H]2C(=NNC(N)=S)CC[C@@]3(O)[C@H]1C5 [Oxymorphone thiosemicarbazone, 14-OH dihydromorphine thiosemicarbazone] | – | 0 | 37±9 | – | – | –
C=CCN1CCC23c4c5ccc(O)c4OC2C(=NNc2ccccc2)CCC3(O)C1C5 (stereo not shown) [naloxone phenylhydrazone] | – | – | – | – | – | much weaker membrane affinity than naloxone
